Test results reported in patent US20220089578A1, “COMPOUNDS AS GLP-1R AGONISTS” (Terns Pharmaceuticals, Inc., priority 2020, published 2022).

Biological target: human GLP-1R (Homo sapiens, UniProt P43220)
Test: GLP-1R Cell Assay 1: cAMP Hunter CHO-K1 GLP1R Gs cell line, HitHunter cAMP assay
Format: cell-based
Settings: cAMP Hunter CHO-K1 GLP1R Gs cells, percent activity normalized to Exendin-4
Outline: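 Luminescent enzyme-fragment-complementation immunoassay quantified cellular cAMP after 30-60 min compound exposure at 37 °C in HBSS/10 mM HEPES. Data from duplicate runs were normalised to Exendin-4 and fitted nonlinearly for EC50.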

human GLP-1R, sequence (P43220 24-463): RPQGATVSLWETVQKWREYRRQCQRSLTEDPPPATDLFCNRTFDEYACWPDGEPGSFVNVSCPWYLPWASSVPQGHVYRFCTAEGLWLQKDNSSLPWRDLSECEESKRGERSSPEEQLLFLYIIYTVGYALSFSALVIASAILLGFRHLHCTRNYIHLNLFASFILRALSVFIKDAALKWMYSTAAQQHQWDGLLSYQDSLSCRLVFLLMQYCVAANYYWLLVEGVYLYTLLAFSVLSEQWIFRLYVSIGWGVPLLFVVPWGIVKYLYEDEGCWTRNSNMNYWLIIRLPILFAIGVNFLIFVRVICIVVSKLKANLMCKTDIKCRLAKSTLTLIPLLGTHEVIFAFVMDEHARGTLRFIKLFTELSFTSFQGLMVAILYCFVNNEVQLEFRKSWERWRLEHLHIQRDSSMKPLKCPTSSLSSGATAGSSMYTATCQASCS

EC50 (Table 2) [nM]	EC50 (Table 3) [nM]	Structure (SMILES)
23		O=C(O)c1ccc2nc(CN3CC(=O)N(c4cccc(OCc5ccccc5)n4)CC3=O)n(C[C@@H]3CCO3)c2c1 [Compound 17, (S)-2-((4-(6-(benzyloxy)pyridin-2-yl)-2,5-dioxopiperazin-1-yl)methyl)-1-(oxetan-2-ylmethyl)-1H-benzo[d]imidazole-6-carboxylic acid]
333		CC1(COc2cccc(N3CCN(Cc4nc5ccc(C(=O)O)cc5n4C[C@@H]4CCO4)CC3)n2)CC(F)(F)C1 [Compound 34, (S)-2-((4-(6-((3,3-difluoro-1-methylcyclobutyl)methoxy)pyridin-2-yl)piperazin-1-yl)methyl)-1-(oxetan-2-ylmethyl)-1H-benzo[d]imidazole-6-carboxylic acid]
> 500		C[C@@]1(c2cccc(OCc3ccc(C#N)cc3F)n2)CCN(Cc2nc3ccc(C(=O)O)cc3n2C[C@@H]2CCO2)C1 (single isomer, unassigned) [Compound 20-P1]
> 500		N#Cc1ccc2c(c1)CCN(c1ccn(C3CCN(Cc4nc5ccc(C(=O)O)cc5n4C[C@@H]4CCO4)CC3)n1)CC2 [Compound 106, (S)-2-((4-(3-(7-cyano-1,2,4,5-tetrahydro-3H-benzo[d]azepin-3-yl)-1H-pyrazol-1-yl)piperidin-1-yl)methyl)-1-(oxetan-2-ylmethyl)-1H-benzo[d]imidazole-6-carboxylic acid]
> 500		O=C(O)c1ccc2nc(CN3CCN(c4cccc(OCC5COC5)n4)CC3)n(C[C@@H]3CCO3)c2c1 [Compound 47, (S)-1-(oxetan-2-ylmethyl)-2-((4-(6-(oxetan-3-ylmethoxy)pyridin-2-yl)piperazin-1-yl)methyl)-1H-benzo[d]imidazole-6-carboxylic acid]
> 500		CN1CCC(COc2cccc(N3CCN(Cc4nc5ccc(C(=O)O)cc5n4C[C@@H]4CCO4)CC3)n2)CC1 [Compound 37, (S)-2-((4-(6-((1-methylpiperidin-4-yl)methoxy)pyridin-2-yl)piperazin-1-yl)methyl)-1-(oxetan-2-ylmethyl)-1H-benzo[d]imidazole-6-carboxylic acid]
42.3		O=C(O)c1ccc2nc(CN3CCN(c4cccc(NCc5ccccc5)n4)CC3)n(C[C@@H]3CCO3)c2c1 [Compound 55, (S)-2-((4-(6-(benzylamino)pyridin-2-yl)piperazin-1-yl)methyl)-1-(oxetan-2-ylmethyl)-1H-benzo[d]imidazole-6-carboxylic acid]
	304	O=C(O)c1ccc2nc(CN3CCC(c4cccc(OC5CCCc6ccccc65)n4)CC3)n(C[C@@H]3CCO3)c2c1 (stereo partly drawn) [Compound 161, 1-(((S)-oxetan-2-yl)methyl)-2-((4-(6-((1,2,3,4-tetrahydronaphthalen-1-yl)oxy)pyridin-2-yl)piperidin-1-yl)methyl)-1H-benzo[d]imidazole-6-carboxylic acid]
	> 500	O=C(O)c1ccc2nc(CN3CCN(c4ccc5c(n4)OC(c4ccccc4)CC5)CC3)n(C[C@@H]3CCO3)c2c1 (stereo partly drawn) [Compound 162, 1-(((S)-oxetan-2-yl)methyl)-2-((4-(2-phenyl-3,4-dihydro-2H-pyrano[2,3-b]pyridin-7-yl)piperazin-1-yl)methyl)-1H-benzo[d]imidazole-6-carboxylic acid]
17.3		N#Cc1ccc(COc2cccc(C3CCN([C@H]4CCCCn5c4nc4ccc(C(=O)O)cc45)CC3)n2)c(F)c1 [Compound 91, (S)-6-(4-(6-((4-cyano-2-fluorobenzyl)oxy)pyridin-2-yl)piperidin-1-yl)-7,8,9,10-tetrahydro-6H-benzo[4,5]imidazo[1,2-a]azepine-2-carboxylic acid]
21.7		O=C(O)c1ccc2nc(CN3CCN(c4cccc(OC5(c6ccccc6)COC5)n4)CC3)n(C[C@@H]3CCO3)c2c1 [Compound 45, (S)-1-(oxetan-2-ylmethyl)-2-((4-(6-((3-phenyloxetan-3-yl)oxy)pyridin-2-yl)piperazin-1-yl)methyl)-1H-benzo[d]imidazole-6-carboxylic acid]
124		O=C(O)c1ccc2nc(CN3CCC(c4cccc(C5CCc6ccccc6C5)n4)CC3)n(C[C@@H]3CCO3)c2c1 (stereo partly drawn) [Compound 12, 1-((S)-oxetan-2-ylmethyl)-2-((4-(6-(1,2,3,4-tetrahydronaphthalen-2-yl)pyridin-2-yl)piperidin-1-yl)methyl)-1H-benzo[d]imidazole-6-carboxylic acid]
> 500		O=C(O)c1ccc2nc(CN3CCN(c4ccc5cn(Cc6ccccc6)nc5n4)CC3)n(C[C@@H]3CCO3)c2c1 [Compound 31, (S)-2-((4-(2-benzyl-2H-pyrazolo[3,4-b]pyridin-6-yl)piperazin-1-yl)methyl)-1-(oxetan-2-ylmethyl)-1H-benzo[d]imidazole-6-carboxylic acid]
> 500		N#Cc1ccc(COc2cccc(C3CCN([C@@H]4CCCn5c4nc4ccc(C(=O)O)cc45)CC3)n2)c(F)c1 [Compound 87, (R)-4-(4-(6-((4-cyano-2-fluorobenzyl)oxy)pyridin-2-yl)piperidin-1-yl)-1,2,3,4-tetrahydrobenzo[4,5]imidazo[1,2-a]pyridine-8-carboxylic acid]
1.24		O=C(O)c1ccc2nc(CN3CCN(c4cccc(OCc5nc6cc(Cl)ccc6s5)n4)CC3)n(C[C@@H]3CCO3)c2c1 [Compound 112, (S)-2-((4-(6-((5-chlorobenzo[d]thiazol-2-yl)methoxy)pyridin-2-yl)piperazin-1-yl)methyl)-1-(oxetan-2-ylmethyl)-1H-benzo[d]imidazole-6-carboxylic acid]
78.1		C[C@@H]1COC[C@@H](N2CCC(c3cccc(OCc4ccc(C#N)cc4F)n3)CC2)c2nc3ccc(C(=O)O)cc3n21 [Compound 96, (1R,5S)-5-(4-(6-((4-cyano-2-fluorobenzyl)oxy)pyridin-2-yl)piperidin-1-yl)-1-methyl-1,2,4,5-tetrahydrobenzo[4,5]imidazo[1,2-d][1,4]oxazepine-9-carboxylic acid]
	87.1	O=C(O)c1ccc2nc(CN3CCN(c4cc5ccccc5c(OCc5ccccc5)n4)CC3)n(C[C@@H]3CCO3)c2c1 [Compound 156, (S)-2-((4-(1-(benzyloxy)isoquinolin-3-yl)piperazin-1-yl)methyl)-1-(oxetan-2-ylmethyl)-1H-benzo[d]imidazole-6-carboxylic acid]
0.213		N#Cc1ccc2nc(COc3cccc(N4CCN(Cc5nc6ccc(C(=O)O)cc6n5C[C@@H]5CCO5)CC4)n3)sc2c1 [Compound 110, (S)-2-((4-(6-((6-cyanobenzo[d]thiazol-2-yl)methoxy)pyridin-2-yl)piperazin-1-yl)methyl)-1-(oxetan-2-ylmethyl)-1H-benzo[d]imidazole-6-carboxylic acid]
0.966		O=C(O)c1ccc2nc(CN3CCN(c4cccc(OCc5nc6cnccc6s5)n4)CC3)n(C[C@@H]3CCO3)c2c1 [Compound 130, (S)-1-(oxetan-2-ylmethyl)-2-((4-(6-(thiazolo[4,5-c]pyridin-2-ylmethoxy)pyridin-2-yl)piperazin-1-yl)methyl)-1H-benzo[d]imidazole-6-carboxylic acid]

Structure (SMILES)	EC50 (Table 2) [nM]	EC50 (Table 3) [nM]
N#Cc1ccc(COc2ncccc2[C@@]23CCN(Cc4nc5ccc(C(=O)O)cc5n4CC4CCO4)C[C@@H]2C3)c(F)c1 (single isomer, unassigned) [Compound 167, 2-((6-(2-((4-cyano-2-fluorobenzyl)oxy)pyridin-3-yl)-3-azabicyclo[4.1.0]heptan-3-yl)methyl)-1-(oxetan-2-ylmethyl)-1H-benzo[d]imidazole-6-carboxylic acid]		266
O=C(O)c1ccc2nc(CN3CCC4(c5cccc(OCc6ccccc6)n5)CC4C3)n(CC3CCO3)c2c1 (centres unmarked) [Compound 10]	13.9	
N#Cc1ccc(COc2cccc(C34CCN(Cc5nc6ccc(C(=O)O)cc6n5C[C@@H]5CCO5)CC3C4)n2)c(F)c1 (stereo partly drawn) [Compound 9, 2-((6-(6-((4-cyano-2-fluorobenzyl)oxy)pyridin-2-yl)-3-azabicyclo[4.1.0]heptan-3-yl)methyl)-1-((S)-oxetan-2-ylmethyl)-1H-benzo[d]imidazole-6-carboxylic acid]	0.476	
O=C(O)c1ccc2nc(CN3CCC(n4ccc(COc5ccccc5)n4)CC3)n(C[C@@H]3CCO3)c2c1 [Compound 26-P1, (S)-1-(oxetan-2-ylmethyl)-2-((4-(3-(phenoxymethyl)-1H-pyrazol-1-yl)piperidin-1-yl)methyl)-1H-benzo[d]imidazole-6-carboxylic acid]	> 500	
